A short description of this assay: Antioxidant activity assessed as concentration required to double citronellal oxidation half life by thermo-oxidation method relative to control. It is filed as functional.

Our source for the Activity values is ChEMBL document CHEMBL1154834, “A theoretical study of the structure-radical scavenging activity of trans-resveratrol analogues and cis-resveratrol in gas phase and water environment” (Eur J Med Chem, 2010).

Structures are written as SMILES.

As for `Oc1ccc(/C=C/c2cc(O)cc(O)c2)cc1`, the Activity was 135 µM.
For `Oc1ccc(/C=C\c2cc(O)cc(O)c2)cc1`, the Activity came to 241 µM.
Consider `Oc1ccc(CCc2cc(O)cc(O)c2)cc1`, for which the Activity was found to be 260 µM.
